Source: patent publication US8901118B2, “Compounds and methods for kinase modulation, and indications therefor” (Plexxikon Inc., priority 2010, dated 2014)

Assays:
[1] = molecular target: c-Kit kinase (Homo sapiens, UniProt P10721); experiment: c-Kit kinase biochemical activity assay (AlphaScreen, biotin-(E4Y)10 phosphorylation); details: 100 μM ATP; read-out: Biochemical Inhibition IC50 Kit
Method in brief: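 Phosphorylation of 30 nM biotin-(E4Y)10 by c-Kit (0.75 ng per reaction) with 100 µM ATP in HEPES pH 7.5 buffer with Mg2+/Mn2+, 5% DMSO, 1 h at room temperature; 8-point 1:2 compound dilutions. AlphaScreen detection with streptavidin donor and PY20 acceptor beads after EDTA stop. IC50 from signal versus concentration.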

[2] = molecular target: T1, BCR-FMS BaF3 cells (Homo sapiens, UniProt P07333); experiment: BaF3 BCR-FMS cell proliferation assay (ATPlite); format: cell-based; details: read-out: Inhibition of Cell Proliferation IC50, BCR/BaF3 Fms
T1 construct: fused on or other part: P11274 (Breakpoint cluster region protein)
T1 sequence (P07333 582-910): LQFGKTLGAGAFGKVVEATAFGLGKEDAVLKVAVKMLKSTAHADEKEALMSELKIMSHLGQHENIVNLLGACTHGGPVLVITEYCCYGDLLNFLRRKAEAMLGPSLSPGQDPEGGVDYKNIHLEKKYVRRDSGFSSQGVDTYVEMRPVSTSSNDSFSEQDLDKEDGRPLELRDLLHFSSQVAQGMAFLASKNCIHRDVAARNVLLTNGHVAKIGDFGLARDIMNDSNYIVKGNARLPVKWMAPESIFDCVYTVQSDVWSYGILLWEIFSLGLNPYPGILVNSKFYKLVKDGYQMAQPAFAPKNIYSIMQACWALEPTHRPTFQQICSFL
Method in brief: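 ATP-based luminescence (ATPlite), read after 10 min at room temperature, served as a proxy for cell number, and IC50 was fitted against compound concentration. Before that, cells were treated for 3 days with an 8-point 1:3 dilution series starting at 10 μM. BaF3 cells were plated at 10,000/well without IL-3, and MV-4-11 cells at 25,000/well.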

Sequence of c-Kit kinase (P10721 26-976): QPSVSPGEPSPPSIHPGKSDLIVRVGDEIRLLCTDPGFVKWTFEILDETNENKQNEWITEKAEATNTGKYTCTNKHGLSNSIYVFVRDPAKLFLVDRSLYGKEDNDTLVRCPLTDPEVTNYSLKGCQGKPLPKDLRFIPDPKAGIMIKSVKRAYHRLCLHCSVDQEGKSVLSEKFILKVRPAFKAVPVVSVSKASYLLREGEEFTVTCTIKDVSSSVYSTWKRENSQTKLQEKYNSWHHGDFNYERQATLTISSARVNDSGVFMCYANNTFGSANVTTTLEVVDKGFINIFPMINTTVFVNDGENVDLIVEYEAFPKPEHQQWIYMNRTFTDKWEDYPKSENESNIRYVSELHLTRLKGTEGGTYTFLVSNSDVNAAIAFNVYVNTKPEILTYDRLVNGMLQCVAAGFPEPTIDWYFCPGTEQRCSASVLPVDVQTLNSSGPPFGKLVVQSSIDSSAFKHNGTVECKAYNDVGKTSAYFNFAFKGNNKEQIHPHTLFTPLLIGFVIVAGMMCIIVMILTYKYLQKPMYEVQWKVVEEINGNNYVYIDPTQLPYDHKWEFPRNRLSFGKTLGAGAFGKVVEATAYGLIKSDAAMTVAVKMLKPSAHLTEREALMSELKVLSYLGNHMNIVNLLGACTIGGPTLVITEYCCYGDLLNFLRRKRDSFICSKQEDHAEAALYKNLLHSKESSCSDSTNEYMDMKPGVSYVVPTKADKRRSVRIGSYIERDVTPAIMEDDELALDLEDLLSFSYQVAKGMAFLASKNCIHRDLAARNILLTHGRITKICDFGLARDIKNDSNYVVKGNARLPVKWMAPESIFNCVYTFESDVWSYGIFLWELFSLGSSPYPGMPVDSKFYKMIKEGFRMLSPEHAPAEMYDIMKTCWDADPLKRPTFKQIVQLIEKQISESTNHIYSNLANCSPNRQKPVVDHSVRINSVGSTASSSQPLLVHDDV

Compound	IC50 [1]	IC50 [2]
CC(C)Nc1ncnc2[nH]cc(C(=O)c3ccc(NC4CCCCC4)nc3Cl)c12 [Compound P-4109, [2-chloro-6-(cyclohexylamino)-3-pyridyl]-[4-(isopropylamino)-7H-pyrrolo[2,3-d]pyrimidin-5-yl]methanone]	< 1000 nM	< 100 nM
CNc1ncnc2[nH]cc(C(=O)c3ccc(NC4CCCCC4)nc3Cl)c12 [Compound P-4110, [2-chloro-6-(cyclohexylamino)-3-pyridyl]-[4-(methylamino)-7H-pyrrolo[2,3-d]pyrimidin-5-yl]methanone]	< 1000 nM	< 100 nM
Cc1ccc(Nc2ccc(C(=O)c3c[nH]c4ncnc(NC5CCCCC5)c34)c(F)n2)cn1 [Compound P-4111, [4-(cyclohexylamino)-7H-pyrrolo[2,3-d]pyrimidin-5-yl]-[2-fluoro-6-[(6-methyl-3-pyridyl)amino]-3-pyridyl]methanone]	< 1000 nM	< 100 nM
Cc1ccc(Nc2ccc(C(=O)c3c[nH]c4ncnc(NCC(F)(F)F)c34)c(F)n2)cn1 [Compound P-4112, [2-fluoro-6-[(6-methyl-3-pyridyl)amino]-3-pyridyl]-[4-(2,2,2-trifluoroethylamino)-7H-pyrrolo[2,3-d]pyrimidin-5-yl]methanone]	< 1000 nM	< 100 nM
Cc1ccc(Nc2ccc(C(=O)c3c[nH]c4ncnc(NCC5CC5)c34)c(F)n2)cn1 [Compound P-4113, [4-(cyclopropylmethylamino)-7H-pyrrolo[2,3-d]pyrimidin-5-yl]-[2-fluoro-6-[(6-methyl-3-pyridyl)amino]-3-pyridyl]methanone]	< 100 nM	< 10 nM
CCCNc1ncnc2[nH]cc(C(=O)c3ccc(Nc4ccc(C)nc4)nc3F)c12 [Compound P-4114, [2-fluoro-6-[(6-methyl-3-pyridyl)amino]-3-pyridyl]-[4-(propylamino)-7H-pyrrolo[2,3-d]pyrimidin-5-yl]methanone]	< 100 nM	< 10 nM
CNc1ncnc2[nH]cc(C(=O)c3ccc(Nc4ccc(C)nc4)nc3F)c12 [Compound P-4115, [2-fluoro-6-[(6-methyl-3-pyridyl)amino]-3-pyridyl]-[4-(methylamino)-7H-pyrrolo[2,3-d]pyrimidin-5-yl]methanone]	< 100 nM	< 10 nM
CCc1ccc(Nc2ccc(C(=O)c3c[nH]c4ncnc(NC5CCOCC5)c34)c(F)n2)cn1 [Compound P-4116, [6-[(6-ethyl-3-pyridyl)amino]-2-fluoro-3-pyridyl]-[4-(tetrahydropyran-4-ylamino)-7H-pyrrolo[2,3-d]pyrimidin-5-yl]methanone]	< 100 nM	< 10 nM

Results, then the compound that gave them:

IC50 [1]	IC50 [2]	Compound
< 100 nM	< 10 nM	CCc1ccc(Nc2ccc(C(=O)c3c[nH]c4ncnc(NC(C)C)c34)c(F)n2)cn1 [Compound P-4117, [6-[(6-ethyl-3-pyridyl)amino]-2-fluoro-3-pyridyl]-[4-(isopropylamino)-7H-pyrrolo[2,3-d]pyrimidin-5-yl]methanone]
< 100 nM	< 10 nM	CCc1ccc(Nc2ccc(C(=O)c3c[nH]c4ncnc(NCC5CC5)c34)c(F)n2)cn1 [Compound P-4118, [4-(cyclopropylmethylamino)-7H-pyrrolo[2,3-d]pyrimidin-5-yl]-[6-[(6-ethyl-3-pyridyl)amino]-2-fluoro-3-pyridyl]methanone]
< 10 nM	< 10 nM	CCc1ccc(Nc2ccc(C(=O)c3c[nH]c4ncnc(NCCOC)c34)c(F)n2)cn1 [Compound P-4119, [6-[(6-ethyl-3-pyridyl)amino]-2-fluoro-3-pyridyl]-[4-(2-methoxyethylamino)-7H-pyrrolo[2,3-d]pyrimidin-5-yl]methanone]
< 100 nM	< 100 nM	CCc1ccc(Nc2ccc(C(=O)c3c[nH]c4ncnc(NCC(F)(F)F)c34)c(F)n2)cn1 [Compound P-4120, [6-[(6-ethyl-3-pyridyl)amino]-2-fluoro-3-pyridyl]-[4-(2,2,2-trifluoroethylamino)-7H-pyrrolo[2,3-d]pyrimidin-5-yl]methanone]
< 10 nM	< 10 nM	CCc1ccc(Nc2ccc(C(=O)c3c[nH]c4ncnc(NCC(C)C)c34)c(F)n2)cn1 [Compound P-4121, [6-[(6-ethyl-3-pyridyl)amino]-2-fluoro-3-pyridyl]-[4-(isobutylamino)-7H-pyrrolo[2,3-d]pyrimidin-5-yl]methanone]
< 10 nM	< 10 nM	CCCNc1ncnc2[nH]cc(C(=O)c3ccc(Nc4ccc(CC)nc4)nc3F)c12 [Compound P-4122, [6-[(6-ethyl-3-pyridyl)amino]-2-fluoro-3-pyridyl]-[4-(propylamino)-7H-pyrrolo[2,3-d]pyrimidin-5-yl]methanone]
< 10 nM	< 10 nM	CCNc1ncnc2[nH]cc(C(=O)c3ccc(Nc4ccc(CC)nc4)nc3F)c12 [Compound P-4123, [4-(ethylamino)-7H-pyrrolo[2,3-d]pyrimidin-5-yl]-[6-[(6-ethyl-3-pyridyl)amino]-2-fluoro-3-pyridyl]methanone]
< 10 nM	< 10 nM	CCc1ccc(Nc2ccc(C(=O)c3c[nH]c4ncnc(NC)c34)c(F)n2)cn1 [Compound P-4124, [6-[(6-ethyl-3-pyridyl)amino]-2-fluoro-3-pyridyl]-[4-(methylamino)-7H-pyrrolo[2,3-d]pyrimidin-5-yl]methanone]
< 100 nM	< 10 nM	CCc1ccc(Nc2ccc(C(=O)c3c[nH]c4ncnc(NC5CC5)c34)c(F)n2)cn1 [Compound P-4125, [4-(cyclopropylamino)-7H-pyrrolo[2,3-d]pyrimidin-5-yl]-[6-[(6-ethyl-3-pyridyl)amino]-2-fluoro-3-pyridyl]methanone]
< 100 nM	< 10 nM	COc1ccc(Nc2ccc(C(=O)c3c[nH]c4ncnc(NC5CC5)c34)c(F)n2)cn1 [Compound P-4126, [4-(cyclopropylamino)-7H-pyrrolo[2,3-d]pyrimidin-5-yl]-[2-fluoro-6-[(6-methoxy-3-pyridyl)amino]-3-pyridyl]methanone]
< 1000 nM	< 10 nM	Fc1cc(Cc2c[nH]c3ncnc(NC4CC4)c23)cnc1NC1CCC(F)(F)CC1 [Compound P-4127, N-cyclopropyl-5-[[6-[(4,4-difluorocyclohexyl)amino]-5-fluoro-3-pyridyl]methyl]-7H-pyrrolo[2,3-d]pyrimidin-4-amine]
